Assay [1] has as its target T1, AR-VP16 (Homo sapiens, UniProt P10275).
T1 sequence (P10275 560-920 limits assumed): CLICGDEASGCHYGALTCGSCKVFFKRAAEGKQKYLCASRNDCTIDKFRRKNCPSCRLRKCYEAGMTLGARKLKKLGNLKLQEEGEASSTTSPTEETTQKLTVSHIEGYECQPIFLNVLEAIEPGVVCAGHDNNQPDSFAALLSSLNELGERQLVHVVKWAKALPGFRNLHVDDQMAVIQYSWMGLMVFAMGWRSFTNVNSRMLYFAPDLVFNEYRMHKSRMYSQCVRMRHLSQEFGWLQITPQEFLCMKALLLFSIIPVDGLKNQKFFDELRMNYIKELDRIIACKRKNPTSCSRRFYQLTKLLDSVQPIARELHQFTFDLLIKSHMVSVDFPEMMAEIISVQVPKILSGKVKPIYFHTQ
In words: AR-VP16 DNA Binding Assay, agonist mode (HepG2 cells). The class given is cell-based. As to conditions: Emax >20x DMSO control = agonist.

Assay [2] concerns the target T1, AR-VP16. As to the kind of experiment: AR-VP16 DNA Binding Assay, antagonist mode (HepG2 cells, 0.1 nM R1881). The class given is cell-based. The method, boiled down:
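Transfected HepG2 cells expressing AR-VP16 received serially diluted compound in charcoal-stripped-serum RPMI the day after transfection, with 0.1 nM R1881 (final) added only for antagonist testing. After 48 h, cells were lysed for measurement.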

20 compounds from US9108944B2, “Androgen receptor modulators and uses thereof” (ARAGON PHARMACEUTICALS, INC., priority 2010, dated 2015) can be followed below.

With `N#Cc1ncc(N2C(=O)C3(CCC3)N(c3ccc(Oc4ccccc4)cc3)C2=S)cc1C(F)(F)F` [Compound 25, 5-(8-Oxo-5-(4-phenoxyphenyl)-6-thioxo-5,7-diazaspiro[3.4]octan-7-yl)-3-(trifluoromethyl)picolinonitrile], the “ARVP16 DNA Binding Assay (Agonist mode): Agonist?” value (from here on “ARVP16 DNA Binding Assay”) in assay [1] is on record as “No (Agonist defined as a compound whose Emax in the ARVP16 DNA Binding Assay (Agonist mode) is >20x DMSO control)”. Also, in assay [2], the IC50 (in general, the concentration at which inhibition is half-maximal) was below 1000 nM.
As to `N#Cc1ncc(N2C(=O)C3(CCC3)N(c3ccccc3F)C2=S)cc1C(F)(F)F` [Compound 26, 5-(5-(2-Fluorophenyl)-8-oxo-6-thioxo-5,7-diazaspiro[3.4]octan-7-yl)-3-(trifluoromethyl)picolinonitrile], the “ARVP16 DNA Binding Assay” value in assay [1] was “Yes (Agonist defined as a compound whose Emax in the ARVP16 DNA Binding Assay (Agonist mode) is >20x DMSO control)”. In assay [2], this compound had an IC50 below 1000 nM.
For `N#Cc1ncc(N2C(=O)C3(CCC3)N(c3cccc(F)c3)C2=S)cc1C(F)(F)F` [Compound 27, 5-(5-(3-Fluorophenyl)-8-oxo-6-thioxo-5,7-diazaspiro[3.4]octan-7-yl)-3-(trifluoromethyl)picolinonitrile], in assay [1], the “ARVP16 DNA Binding Assay” value is on record as “No (Agonist defined as a compound whose Emax in the ARVP16 DNA Binding Assay (Agonist mode) is >20x DMSO control)”. For the same compound, in assay [2], the IC50 is below 1000 nM.
In the case of `N#Cc1ncc(N2C(=O)C3(CCC3)N(c3ccc(F)cc3)C2=S)cc1C(F)(F)F` [Compound 28, 5-(5-(4-Fluorophenyl)-8-oxo-6-thioxo-5,7-diazaspiro[3.4]octan-7-yl)-3-(trifluoromethyl)picolinonitrile], in assay [1], the “ARVP16 DNA Binding Assay” value is recorded as “No (Agonist defined as a compound whose Emax in the ARVP16 DNA Binding Assay (Agonist mode) is >20x DMSO control)”. The IC50 in assay [2] is below 1000 nM.
On the same counts, the results for `COc1cc(F)ccc1N1C(=S)N(c2cnc(C#N)c(C(F)(F)F)c2)C(=O)C12CCC2` [Compound 29, 5-(5-(4-Fluoro-2-methoxyphenyl)-8-oxo-6-thioxo-5,7-diazaspiro[3.4]octan-7-yl)-3-(trifluoromethyl)picolinonitrile] are “No (Agonist defined as a compound whose Emax in the ARVP16 DNA Binding Assay (Agonist mode) is >20x DMSO control)” and below 1000 nM.
Take `Cc1ccc(N2C(=S)N(c3cnc(C#N)c(C)c3)C(=O)C23CCC3)cc1` [Compound 31, 3-Methyl-5-(8-oxo-6-thioxo-5-(p-tolyl)-5,7-diazpiro[3.4]octan-7-yl)picolinonitrile]: in assay [1], the “ARVP16 DNA Binding Assay” value is recorded as “No (Agonist defined as a compound whose Emax in the ARVP16 DNA Binding Assay (Agonist mode) is >20x DMSO control)”. The compound further gave an IC50 in assay [2] below 1000 nM.
`COc1cc(N2C(=S)N(c3cnc(C#N)c(C(F)(F)F)c3)C(=O)C23CCC3)ccc1F` [Compound 32, 5-(5-(4-fluoro-3-methoxyphenyl)-8-oxo-6-thioxo-5,7-diazaspiro[3.4]octan-7-yl)-3-(trifluoromethyl)picolinonitrile]: the “ARVP16 DNA Binding Assay” value in assay [1] was “No (Agonist defined as a compound whose Emax in the ARVP16 DNA Binding Assay (Agonist mode) is >20x DMSO control)”. Besides, the IC50 in assay [2] was below 1000 nM.
The corresponding values for `Cc1ccc(N2C(=S)N(c3cnc(C#N)c(C(F)(F)F)c3)C(=O)C2(C)C)cc1` [Compound 33, 5-(4,4-Dimethyl-5-oxo-2-thioxo-3-(p-tolyl)imidazolidin-1-yl)-3-(trifluoromethyl)picolinonitrile] are “No (Agonist defined as a compound whose Emax in the ARVP16 DNA Binding Assay (Agonist mode) is >20x DMSO control)” and below 1000 nM.
Regarding `Cc1ccc(N2C(=S)N(c3ccc(C#N)c(C(F)(F)F)n3)C(=O)C23CCC3)cc1` [Compound 34, 6-(8-Oxo-6-thioxo-5-(p-tolyl)-5,7-diazaspiro[3.4]octan-7-yl)-2-(trifluoromethyl)nicotinonitrile], the “ARVP16 DNA Binding Assay” value in assay [1] is on record as “No (Agonist defined as a compound whose Emax in the ARVP16 DNA Binding Assay (Agonist mode) is >20x DMSO control)”. Further, in assay [2], the IC50 was above 1000 nM.
The corresponding values for `CNC(=O)c1ccc(N2C(=S)N(c3ccc(C#N)c(C(F)(F)F)n3)C(=O)C23CCC3)cc1F` [Compound 35, 4-(7-(5-Cyano-6-(trifluoromethyl)pyridin-2-yl)-8-oxo-6-thioxo-5,7-diazaspiro[3.4]octan-5-yl)-2-fluoro-N-methylbenzamide] are “No (Agonist defined as a compound whose Emax in the ARVP16 DNA Binding Assay (Agonist mode) is >20x DMSO control)” and above 1000 nM.
On the same counts, the results for `N#Cc1ncc(N2C(=O)C3(CCC3)N(c3ccc(F)cc3O)C2=S)cc1C(F)(F)F` [Compound 38, 5-(5-(4-Fluoro-2-hydroxyphenyl)-8-oxo-6-thioxo-5,7-diazaspiro[3.4]octan-7-yl)-3-(trifluoromethyl)picolinonitrile] are “No (Agonist defined as a compound whose Emax in the ARVP16 DNA Binding Assay (Agonist mode) is >20x DMSO control)” and above 1000 nM.
Take `N#Cc1ncc(N2C(=O)C3(CCC3)N(c3ccc(Oc4cccnc4)cc3)C2=S)cc1C(F)(F)F` [Compound 39, 5-(8-Oxo-5-(4-(pyridin-3-yloxy)phenyl)-6-thioxo-5,7-diazaspiro[3.4]octan-7-yl)-3-(trifluoromethyl)picolinonitrile]: in assay [1], the “ARVP16 DNA Binding Assay” value is “Yes (Agonist defined as a compound whose Emax in the ARVP16 DNA Binding Assay (Agonist mode) is >20x DMSO control)”. In assay [2], this compound had an IC50 below 1000 nM.
Regarding `N#Cc1ncc(N2C(=O)C3(CCC3)N(c3ccc(Oc4ccncc4)cc3)C2=S)cc1C(F)(F)F` [Compound 40, 5-(8-Oxo-5-(4-(pyridin-4-yloxy)phenyl)-6-thioxo-5,7-diazaspiro[3.4]octan-7-yl)-3-(trifluoromethyl)picolinonitrile], in assay [1], the “ARVP16 DNA Binding Assay” value is listed as “No (Agonist defined as a compound whose Emax in the ARVP16 DNA Binding Assay (Agonist mode) is >20x DMSO control)”. For the same compound, in assay [2], the IC50 is below 1000 nM.
Take `N#Cc1ncc(N2C(=O)C3(CCC3)N(c3ccc(OC(F)(F)F)cc3)C2=S)cc1C(F)(F)F` [Compound 44, 5-(8-Oxo-6-thioxo-5-(4-(trifluoromethoxy)phenyl)-5,7-diazaspiro[3.4]octan-7-yl)-3-(trifluoromethyl)picolinonitrile]: the “ARVP16 DNA Binding Assay” value in assay [1] is recorded as “No (Agonist defined as a compound whose Emax in the ARVP16 DNA Binding Assay (Agonist mode) is >20x DMSO control)”. Moreover, the IC50 in assay [2] is below 1000 nM.
Consider `N#Cc1ncc(N2C(=O)C3(CCC3)N(c3cccc(OC(F)(F)F)c3)C2=S)cc1C(F)(F)F` [Compound 45, 5-(8-Oxo-6-thioxo-5-(3-(trifluoromethoxy)phenyl)-5,7-diazaspiro[3.4]octan-7-yl)-3-(trifluoromethyl)picolinonitrile], for which the “ARVP16 DNA Binding Assay” value in assay [1] was “No (Agonist defined as a compound whose Emax in the ARVP16 DNA Binding Assay (Agonist mode) is >20x DMSO control)”. In assay [2], this compound returned an IC50 below 1000 nM.
Consider `N#Cc1ncc(N2C(=O)C3(CCC3)N(c3ccc(C(F)(F)F)cc3)C2=S)cc1C(F)(F)F` [Compound 46, 5-(8-Oxo-6-thioxo-5-(4-(trifluoromethyl)phenyl)-5,7-diazaspiro[3.4]octan-7-yl)-3-(trifluoromethyl)picolinonitrile], for which the “ARVP16 DNA Binding Assay” value in assay [1] is on record as “No (Agonist defined as a compound whose Emax in the ARVP16 DNA Binding Assay (Agonist mode) is >20x DMSO control)”. Moreover, the IC50 in assay [2] is below 1000 nM.
For `Cc1ccc(N2C(=S)N(c3cnc(C#N)c(C(F)(F)F)c3)C(=O)C23CCC3)cc1F` [Compound 49, 5-(5-(3-Fluoro-4-methylphenyl)-8-oxo-6-thioxo-5,7-diazaspiro[3.4]octan-7-yl)-3-(trifluoromethyl)picolinonitrile], the “ARVP16 DNA Binding Assay” value in assay [1] is “No (Agonist defined as a compound whose Emax in the ARVP16 DNA Binding Assay (Agonist mode) is >20x DMSO control)”. In assay [2], this compound registered an IC50 below 1000 nM.
As for `Cc1ccc(N2C(=S)N(c3cnc(C#N)c(C(F)(F)F)c3)C(=O)C23CCC3)c(F)c1` [Compound 50, 5-(5-(2-Fluoro-4-methylphenyl)-8-oxo-6-thioxo-5,7-diazaspiro[3.4]octan-7-yl)-3-(trifluoromethyl)picolinonitrile], the “ARVP16 DNA Binding Assay” value in assay [1] was “No (Agonist defined as a compound whose Emax in the ARVP16 DNA Binding Assay (Agonist mode) is >20x DMSO control)”. Further, in assay [2], the IC50 was below 1000 nM.
Regarding `N#Cc1ncc(N2C(=O)C3(CCC3)N(c3ccc4cnccc4c3)C2=S)cc1C(F)(F)F` [Compound 51, 5-(5-(Isoquinolin-6-yl)-8-oxo-6-thioxo-5,7-diazaspiro[3.4]octan-7-yl)-3-(trifluoromethyl)picolinonitrile], in assay [1], the “ARVP16 DNA Binding Assay” value is given as “No (Agonist defined as a compound whose Emax in the ARVP16 DNA Binding Assay (Agonist mode) is >20x DMSO control)”. Moreover, the IC50 in assay [2] was below 1000 nM.
On to `Cc1cc(N2C(=O)C3(CCC3)N(c3ccc(O)c(F)c3)C2=S)cnc1C#N` [Compound 54, 5-(5-(3-Fluoro-4-hydroxyphenyl)-8-oxo-6-thioxo-5,7-diazaspiro[3.4]octan-7-yl)-3-methylpicolinonitrile], for which, in assay [1], the “ARVP16 DNA Binding Assay” value is given as “No (Agonist defined as a compound whose Emax in the ARVP16 DNA Binding Assay (Agonist mode) is >20x DMSO control)”. Also, the IC50 in assay [2] is above 1000 nM.
